Measurements taken from the CheMixHub viscosity set.

Assay: xn = mol fraction of the nth substance listed

NNc1ccccc1 + COc1ccccc1O
303.15 K, 101 kPa
Conditions	viscosity [mPa·s]
x1 = 0.1	5.95
x1 = 0.2	8.21
x1 = 0.3	10.92
x1 = 0.4	13.15
x1 = 0.45	14.65
x1 = 0.5	15.26
x1 = 0.6	15.77
x1 = 0.667	16.06
x1 = 0.7	15.54
x1 = 0.8	14.08
x1 = 0.9	12.33

C[C@H]1CCCC[C@H]1O + C[C@@H]1CCCC[C@H]1O
viscosity [mPa·s], 101 kPa
Conditions	x1 = 0.199	x1 = 0.302	x1 = 0.399	x1 = 0.598	x1 = 0.691	x1 = 0.798
298.15 K	29.88	27.1	24.51	20.97	19.75	18.87
303.15 K	20.72	19.03	17.37	15.25	14.51	13.97

N#Cc1ccccc1 + Cc1ccccc1
viscosity [mPa·s], 100 kPa
Conditions	x1 = 0.1034	x1 = 0.2113	x1 = 0.3332	x1 = 0.409	x1 = 0.5093	x1 = 0.6337	x1 = 0.7569	x1 = 0.879
303 K	0.5391	0.5612	0.6226	0.6592	0.7016	0.7812	0.8795	0.9682
308 K	0.5099	0.5348	0.6121	0.6589	0.7285	0.7989	0.8621	0.9325
313 K	0.5068	0.5399	0.5908	0.6325	0.6985	0.7545	0.8319	0.8819

N#Cc1ccccc1 + ClC(Cl)(Cl)Cl
viscosity [mPa·s], 101 kPa
Conditions	293.15 K	298.15 K	303.15 K	313.15 K	323.15 K
x1 = 0.005	0.986	0.91	0.845	0.748	0.669
x1 = 0.009	1.008	0.934	0.871	0.772	0.694
x1 = 0.045	1.005	0.929	0.863	0.769	0.691

CCOCCOCCOCCO + ClC(Cl)=C(Cl)Cl
298.15 K, 101.33 kPa
Conditions	viscosity [mPa·s]
x1 = 0.0072	0.863
x1 = 0.0185	0.892
x1 = 0.0339	0.931
x1 = 0.0489	0.969
x1 = 0.0609	1.008
x1 = 0.0867	1.081
x1 = 0.1081	1.154
x1 = 0.1487	1.29
x1 = 0.1926	1.459
x1 = 0.2354	1.634
x1 = 0.2903	1.893
x1 = 0.3204	2.052
x1 = 0.3495	2.207
x1 = 0.3887	2.429
x1 = 0.4239	2.631
x1 = 0.4633	2.863
x1 = 0.5019	3.105
x1 = 0.5442	3.384
x1 = 0.5861	3.665
x1 = 0.6345	4.013
x1 = 0.6893	4.413
x1 = 0.7441	4.852
x1 = 0.8008	5.303
x1 = 0.8471	5.684
x1 = 0.9061	6.191
x1 = 0.9387	6.486
x1 = 0.9502	6.589
x1 = 0.9795	6.871
